Data on 36 molecules can be found in patent US20040121947A1, “Compounds which inhibit beta-secretase activity and methods of use thereof” (Oklahoma Medical Research Foundation, priority 2000, published 2004).

Each structure is given as a SMILES string. pKi: −log10 of the molar value. Read-outs that look alike come from different tables or passages of the source.

This experiment addresses T1, memapsin 2 (Homo sapiens, UniProt P56817).
T1 construct: pET-11 vector-derived residues 1-15 of promemapsin 2-T1 (N, cleaved yes); made in house; host or cells: E. coli
The experiment in a line: Inhibition of memapsin 2 proteolytic activity, fluorogenic substrate FS-2. Type of experiment: biochemical. Particulars: for pKi / Ki app / Ki: memapsin 2; for Vi/Vo: ratio of initial cleavage velocities of FS-2 with/without compound, enzyme and inhibitor concentrations equal (e.g., about 80 nM, 100 nM). The procedure:
Ki is the inhibition equilibrium constant which indicates the ability of compounds to inhibit the β-secretase activity of memapsin 2 and memapsin 1. […] The K1 value is independent of the substrate, and converted from Ki apparent.
The Vi/Vo values depicted in Table 1 were determined at conditions under which the enzyme and inhibitor concentrations were equal (e.g., about 80 nM, 100 nM).
The relationship of Ki (independent of substrate concentration) to Kiapp is a function of substrate concentration in the assay and the Km for cleavage of the substrate by either memapsin 1 or memapsin 2 by the relationship:
The spontaneously activated memapsin 2 was employed in assays to assess the inhibition of memapsin 2 relative to memapsin 1 by compounds of the invention and in some crystallization studies.
An aliquot of the inhibitor of known concentration in DMSO was diluted into 1.8 ml 0.1 M NaOAc, pH 4.0. DMSO and added to a final concentration of 10% (v/v), and memapsin 2 (final concentration of 80 nM), followed by a 20 minute equilibration at 37° C. Compounds were evaluated for the ability to inhibit memapsin 1 and memapsin 2 at concentrations between about 10 nM and about 10 μm of inhibitor.

Setting [1] is: independent of substrate, converted from Ki apparent, read-out: Ki.
[2] abbreviates: apparent Ki in presence of substrate FS-2, read-out: Ki app.
Where [3] appears, read: apparent Ki in presence of substrate FS-2.
The mark [4] stands for this setting: independent of substrate, converted from Ki apparent.

T1 sequence (P56817 41-454 limits assumed): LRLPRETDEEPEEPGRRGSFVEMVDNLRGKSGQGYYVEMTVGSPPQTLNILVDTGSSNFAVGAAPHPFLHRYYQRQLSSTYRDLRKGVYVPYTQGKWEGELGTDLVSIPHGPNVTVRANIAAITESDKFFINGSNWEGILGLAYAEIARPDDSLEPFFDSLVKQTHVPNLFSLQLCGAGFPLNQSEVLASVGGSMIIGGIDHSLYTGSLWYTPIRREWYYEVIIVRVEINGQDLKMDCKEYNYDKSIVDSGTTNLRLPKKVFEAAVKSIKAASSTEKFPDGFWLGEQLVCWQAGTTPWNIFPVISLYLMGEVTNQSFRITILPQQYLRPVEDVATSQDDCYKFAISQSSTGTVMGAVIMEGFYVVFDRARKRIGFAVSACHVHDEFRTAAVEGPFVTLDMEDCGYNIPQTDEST

By pKi is commonly meant the Ki on a negative log10 scale, so that one unit is a factor of ten. For the molecule `CSCC[C@H](NC(=O)[C@@H](NC(=O)OC(C)(C)C)C(C)C)C(=O)N[C@@H](CC(C)C)[C@@H](O)C[C@@H](C)C(=O)N[C@H]1c2ccccc2C[C@H]1O` [MMI-046], the pKi under setting [1] was 4.03.

As for `CC(C)C[C@H](NC(=O)[C@H](CCS(C)(=O)=O)NC(=O)[C@@H](NC(=O)OC(C)(C)C)C(C)C)[C@@H](O)C[C@@H](C)C(=O)N[C@H]1c2ccccc2C[C@H]1O` [MMI-047], under setting [1], the negative-log Ki (pKi) is 4.16.

On to `CSCC[C@H](NS(=O)(=O)c1ccc(CO)cc1)C(=O)N[C@@H](Cc1ccccc1)[C@@H](O)C[C@@H](C)C(=O)N[C@H](C(=O)NCc1ccccc1)C(C)C` [MMI-048], for which the negative logarithm of the Ki (pKi) is, setting by setting: under setting [2], 4.26; under setting [1], 4.47.

As for `CC(C)C[C@H](NC(=O)[C@H](CCO)NC(=O)c1cnc2ccccc2c1)[C@@H](O)C[C@@H](C)C(=O)N[C@H](C(=O)N[C@H]1c2ccccc2C[C@H]1O)C(C)C` [MMI-049], the pKi under setting [1] is 3.91.

For `CCC(C)[C@H](NC(=O)[C@H](C)C[C@H](O)[C@H](CC(C)C)NC(=O)[C@H](CCO)NC(=O)c1cnc2ccccc2c1)C(=O)N[C@H]1c2ccccc2C[C@H]1O` (stereo partly drawn) [MMI-050], the negative logarithm of the Ki (pKi) under setting [1] was 4.04.

For `CSCC[C@H](NC(=O)[C@@H](NC(=O)OC(C)(C)C)C(C)C)C(=O)N[C@@H](CC(C)C)[C@@H](O)C[C@@H](C)C(=O)N[C@H]1CCCC[C@@H]1O` [MMI-051], the Ki app entry under setting [3] is reported as “N.I”. The Ki result under setting [4] was “N.I”.

With `CSCC[C@H](NC(=O)[C@@H](NC(=O)OC(C)(C)C)C(C)C)C(=O)N[C@@H](CC(C)C)[C@@H](O)C[C@@H](C)C(=O)N[C@@H]1c2ccccc2C[C@@H]1O` [MMI-053], under setting [3], the Ki app result is “N.I”. In addition, under setting [4], the Ki result is given as “N.I”.

Consider `CC(C)C[C@H](NC(=O)[C@H](CCS(C)(=O)=O)NC(=O)[C@@H](NC(=O)OC(C)(C)C)C(C)C)[C@@H](O)C[C@@H](C)C(=O)N[C@@H]1c2ccccc2C[C@@H]1O` [MMI-054], for which the pKi under setting [1] was 3.53.

On to `CSCC[C@H](NC(=O)[C@@H](NC(=O)OC(C)(C)C)C(C)C)C(=O)N[C@@H](CC(C)C)[C@@H](O)C[C@@H](C)C(=O)N[C@H]1CCCC[C@@H]1O` [MMI-055], for which the pKi under setting [1] was 3.40.

As for `CSCC[C@H](NC(=O)[C@@H](NC(=O)OC(C)(C)C)C(C)C)C(=O)N[C@@H](CC(C)C)[C@@H](O)C[C@@H](C)C(=O)N[C@@H]1CCCC[C@@H]1O` [MMI-057], the negative logarithm of the Ki (pKi) reads like this: under setting [2], 4.13; under setting [1], 4.34.

In the case of `CSCC[C@H](NC(=O)[C@@H](NC(=O)OC(C)(C)C)C(C)C)C(=O)N[C@@H](CC(C)C)[C@@H](O)C[C@@H](C)C(=O)N[C@@H]1CCCC[C@@H]1O` [MMI-059], the pKi was 4.18 under setting [2] and 4.38 under setting [1].

As to `CSCC[C@H](NC(=O)[C@@H](NC(=O)OC(C)(C)C)C(C)C)C(=O)N[C@@H](CC(C)C)[C@@H](O)CN(C)C(=O)[C@H](NC(=O)OCc1ccccc1)C(C)C` [MMI-061], the pKi under setting [1] was 2.01.

Turning to `CC(C)C[C@H](NC(=O)[C@@H](NC(=O)OC(C)(C)C)C(C)C)[C@@H](O)CN(C)C(=O)[C@H](NC(=O)OCc1ccccc1)C(C)C` [MMI-062], the Ki app entry under setting [3] is “N.I”. Further, the Ki entry under setting [4] is listed as “N.I”.

On to `CSCC[C@H](NC(=O)[C@@H](NC(=O)OC(C)(C)C)C(C)C)C(=O)N[C@@H](CC(C)C)[C@@H](O)C[C@@H](C)C(=O)N[C@@H](CC(C)C)C(=O)NCCc1c[nH]c2ccccc12` [MMI-065], for which the negative-log Ki (pKi) under setting [2] was 7.16 and the pKi under setting [1] is 7.37.

Take `CSCC[C@H](NC(=O)[C@@H](NC(=O)OC(C)(C)C)C(C)C)C(=O)N[C@@H](CC(C)C)[C@@H](O)C[C@@H](C)C(=O)N[C@@H](CC(C)C)C(=O)NC1Cc2ccccc2C1` [MMI-066]: the pKi is 7.67 under setting [2] and 7.88 under setting [1].

With `CC(C)C[C@H](NC(=O)[C@H](C)C[C@H](O)[C@H](CC(C)C)NC(=O)[C@H](CCS(C)(=O)=O)NC(=O)[C@@H](NC(=O)OC(C)(C)C)C(C)C)C(=O)NC1Cc2ccccc2C1` [MMI-067], the pKi was 7.13 under setting [2] and 7.34 under setting [1].

As for `CSCC[C@H](NC(=O)[C@H](CC(C)C)NC(=O)OC(C)(C)C)C(=O)N[C@@H](CC(C)C)[C@@H](O)C[C@@H](C)C(=O)N[C@H](C(=O)NCc1ccccc1)C(C)C` [MMI-070], the pKi runs as follows: under setting [2], 8.31; under setting [1], 8.51.

For `CC(C)C[C@H](NC(=O)OC(C)(C)C)C(=O)N[C@@H](CCS(C)(=O)=O)C(=O)N[C@@H](CC(C)C)[C@@H](O)C[C@@H](C)C(=O)N[C@H](C(=O)NCc1ccccc1)C(C)C` [MMI-071], the pKi by setting is: under setting [2], 8.72; under setting [1], 8.93.

As for `CSCC[C@H](NC(=O)[C@@H](NC(=O)OC(C)(C)C)C(C)C)C(=O)N[C@@H](CC(C)C)[C@@H](O)C[C@@H](C)C(=O)N[C@@H](C(=O)NCc1ccccc1)[C@@H](C)O` [MMI-072], the Vi/Vo amounted to 0.9.

As to `CSCCC(NC(=O)[C@@H](NC(=O)OC(C)(C)C)C(C)C)C(=O)N[C@@H](CC(C)C)[C@@H](O)C[C@@H](C)C(=O)N[C@H](C(=O)NCc1ccccc1)[C@H](C)O` (stereo partly drawn) [MMI-081], the Vi/Vo was 0.87.

For `CC(C)C[C@H](NC(=O)C(CCS(C)(=O)=O)NC(=O)[C@@H](NC(=O)OC(C)(C)C)C(C)C)[C@@H](O)C[C@@H](C)C(=O)N[C@H](C(=O)NCc1ccccc1)[C@H](C)O` (stereo partly drawn) [MMI-082], the Vi/Vo came out at 0.72.

Turning to `CSCC[C@H](NC(=O)[C@@H](NC(=O)OC(C)(C)C)C(C)C)C(=O)N[C@@H](CC(C)C)[C@@H](O)C[C@@H](C)C(=O)N[C@H](C(=O)NCc1cccnc1)C(C)C` [MMI-087], the pKi under setting [2] was 6.04 and the negative-log Ki (pKi) under setting [1] is 6.25.

`CC(C)C[C@H](NC(=O)[C@H](CCS(C)(=O)=O)NC(=O)[C@@H](NC(=O)OC(C)(C)C)C(C)C)[C@@H](O)C[C@@H](C)C(=O)N[C@H](C(=O)NCc1cccnc1)C(C)C` [MMI-088]: the pKi under setting [2] is 5.99 and the pKi under setting [1] is 6.19.

Regarding `CSCC[C@H](NC(=O)[C@H](CC(C)C)NS(=O)(=O)c1ccc(C)cc1)C(=O)N[C@@H](CC(C)C)[C@@H](O)C[C@@H](C)C(=O)N[C@H](C(=O)NCc1ccccc1)C(C)C` [MMI-089], the negative logarithm of the Ki (pKi) was 6.50 under setting [2] and 6.71 under setting [1].

With `Cc1ccc(S(=O)(=O)N[C@@H](CC(C)C)C(=O)N[C@@H](CCS(C)(=O)=O)C(=O)N[C@@H](CC(C)C)[C@@H](O)C[C@@H](C)C(=O)N[C@H](C(=O)NCc2ccccc2)C(C)C)cc1` [MMI-090], the negative logarithm of the Ki (pKi) under setting [2] was 6.51 and the negative logarithm of the Ki (pKi) under setting [1] is 6.71.

With `CSCC[C@H](NC(=O)[C@H](CC(C)C)NS(C)(=O)=O)C(=O)N[C@@H](CC(C)C)[C@@H](O)C[C@@H](C)C(=O)N[C@H](C(=O)NCc1ccccc1)C(C)C` [MMI-093], the pKi under setting [2] was 7.92 and the negative-log Ki (pKi) under setting [1] is 8.13.

As to `CSCC[C@H](NC(=O)[C@H](CC(C)C)NC(C)=O)C(=O)N[C@@H](CC(C)C)[C@@H](O)C[C@@H](C)C(=O)N[C@H](C(=O)NCc1ccccc1)C(C)C` [MMI-094], the pKi runs as follows: under setting [2], 7.19; under setting [1], 7.40.

As for `CSCCC(NC(=O)[C@H](CC(C)C)NC(=O)OC(C)(C)C)C(=O)N[C@@H](CC(C)C)[C@@H](O)C[C@@H](C)C(=O)N[C@@H](CC(C)C)C(=O)NCc1ccccc1` (stereo partly drawn) [MMI-097], the pKi is, setting by setting: under setting [2], 7.08; under setting [1], 7.29.

`CC[C@H](C)[C@H](NC(=O)[C@H](C)C[C@H](O)[C@H](CC(C)C)NC(=O)C(CCSC)NC(=O)[C@H](CC(C)C)NC(=O)OC(C)(C)C)C(=O)NCc1ccccc1` (stereo partly drawn) [MMI-099]: the pKi is 6.54 under setting [2] and 6.74 under setting [1].

In the case of `CSCC[C@@H](NC(=O)[C@H](CC(C)C)NC(=O)OC(C)(C)C)C(=O)N[C@@H](CC(C)C)[C@@H](O)C[C@@H](C)C(=O)N[C@H](C(=O)NCc1ccccc1)C(C)C` [MMI-104], the pKi by setting is: under setting [2], 6.08; under setting [1], 6.28.

Turning to `CC(C)C[C@H](NC(=O)OC(C)(C)C)C(=O)N[C@H](CCS(C)(=O)=O)C(=O)N[C@@H](CC(C)C)[C@@H](O)C[C@@H](C)C(=O)N[C@H](C(=O)NCc1ccccc1)C(C)C` [MMI-105], the negative logarithm of the Ki (pKi) was 6.70 under setting [2] and 6.90 under setting [1].

With `CSCC[C@H](NC(=O)[C@H](CC(C)C)NC(=O)OC(C)(C)C)C(=O)N[C@@H](CC(C)C)[C@H](O)C[C@@H](C)C(=O)N[C@H](C(=O)NCc1ccccc1)C(C)C` [MMI-113], the pKi under setting [2] was 7.00 and the pKi under setting [1] is 7.21.

As for `CSCC[C@@H](COC(=O)N[C@@H](CC(C)C)[C@@H](O)C[C@@H](C)C(=O)N[C@H](C(=O)NCc1ccccc1)C(C)C)NC(=O)[C@@H](NC(=O)OC(C)(C)C)C(C)C` [MMI-114], the negative logarithm of the Ki (pKi) was 6.36 under setting [2] and 6.56 under setting [1].

Turning to `CSCC[C@H](NC(=O)NCc1ccco1)C(=O)N[C@@H](CC(C)C)[C@@H](O)C[C@@H](C)C(=O)N[C@H](C(=O)NCc1ccccc1)C(C)C` [MMI-115], the Vi/Vo was 1.04. For the same molecule, the negative-log Ki (pKi) under setting [2] was 6.42. Also, under setting [1], the negative logarithm of the Ki (pKi) is 6.63.

With `CSCC[C@H](NC(=O)NCc1ccco1)C(=O)N[C@@H](CC(C)C)[C@@H](O)C[C@@H](C)C(=O)N[C@H](C(=O)NCc1ccccc1)C(C)C` [MMI-117], the Vi/Vo was found to be 0.57.

For the molecule `CSCC[C@H](NC(=O)OCc1ccoc1)C(=O)N[C@@H](CC(C)C)[C@@H](O)C[C@@H](C)C(=O)N[C@H](C(=O)NCc1ccccc1)C(C)C` [MMI-118], the Vi/Vo is given as 0.48. Moreover, the pKi under setting [2] is 6.51. Further, under setting [1], the pKi is 6.71.
